# Measurements from patent publication US20150141381A1, “TETRACYCLINE COMPOUNDS HAVING TARGET THERAPEUTIC ACTIVITIES” (Paratek Pharmaceuticals, Inc., priority 2001, published 2015).
# Key:
# E. coli mL308 225 = test: In Vitro Anti-Bacterial Activity Assay (MIC), gram negative; format: cell-based; conditions: Escherichia coli, ML308225, 18 h, gram negative bacteria; read-out: Antibiotic Activity Gram − (MIC)
# S. aureus RN450 = test: In Vitro Anti-Bacterial Activity Assay (MIC), gram positive; format: cell-based; conditions: Staphylococcus aureus, RN450, 18 h, gram positive bacteria; read-out: Antibiotic Activity Gram + (MIC)
Structure (SMILES),MIC (E. coli mL308 225) [µg/mL],MIC (S. aureus RN450) [µg/mL]
CN(C)[C@@H]1C(O)=C(C(N)=O)C(=O)[C@@]2(O)C(O)=C3C(=O)c4c(O)ccc(C#CCO)c4C[C@H]3C[C@@H]12,> 4,< 4
CC(=O)c1ccc(-c2cc(N(C)C)c3c(c2O)C(=O)C2=C(O)[C@]4(O)C(=O)C(C(N)=O)=C(O)[C@@H](N(C)C)[C@@H]4C[C@@H]2C3)cc1,> 4,< 4
CN(C)[C@@H]1C(O)=C(C(N)=O)C(=O)[C@@]2(O)C(O)=C3C(=O)c4c(O)ccc(/C=C/c5ccc(C(F)(F)F)cc5)c4C[C@H]3C[C@@H]12,> 4,< 4
COc1cccc(C/C=C\c2ccc(O)c3c2C[C@H]2C[C@H]4[C@H](N(C)C)C(O)=C(C(N)=O)C(=O)[C@@]4(O)C(O)=C2C3=O)c1O,< 4,< 4
CN(C)[C@@H]1C(O)=C(C(N)=O)C(=O)[C@@]2(O)C(O)=C3C(=O)c4c(O)ccc(CCC(=O)N5CCOCC5)c4C[C@H]3C[C@@H]12,> 4,< 4
CN(C)c1cc(C#CC(=O)O)c(O)c2c1C[C@H]1C[C@H]3[C@H](N(C)C)C(O)=C(C(N)=O)C(=O)[C@@]3(O)C(O)=C1C2=O,> 4,> 4
CCCC/C(Cl)=C/c1ccc(O)c2c1C[C@H]1C[C@H]3[C@H](N(C)C)C(O)=C(C(N)=O)C(=O)[C@@]3(O)C(O)=C1C2=O,< 4,< 4
CCCc1ccc(O)c2c1C[C@H]1C[C@H]3[C@H](N(C)C)C(O)=C(C(N)=O)C(=O)[C@@]3(O)C(O)=C1C2=O,< 4,< 4
CN(C)c1cc(C#CCNS(C)(=O)=O)c(O)c2c1C[C@H]1C[C@H]3[C@H](N(C)C)C(O)=C(C(N)=O)C(=O)[C@@]3(O)C(O)=C1C2=O,> 4,> 4
CN(C)[C@@H]1C(O)=C(C(N)=O)C(=O)[C@@]2(O)C(O)=C3C(=O)c4c(O)ccc(C5CCCC5)c4C[C@H]3C[C@@H]12,< 4,< 4
CCCCCCc1ccc(O)c2c1C[C@H]1C[C@H]3[C@H](N(C)C)C(O)=C(C(N)=O)C(=O)[C@@]3(O)C(O)=C1C2=O,< 4,< 4
COc1cccc(C#Cc2cc(N(C)C)c3c(c2O)C(=O)C2=C(O)[C@]4(O)C(=O)C(C(N)=O)=C(O)[C@@H](N(C)C)[C@@H]4C[C@@H]2C3)c1,< 4,< 4
CN(C)c1cc(CCCNS(C)(=O)=O)c(O)c2c1C[C@H]1C[C@H]3[C@H](N(C)C)C(O)=C(C(N)=O)C(=O)[C@@]3(O)C(O)=C1C2=O,> 4,> 4
CN(C)c1cc(CCc2ccc(F)cc2)c(O)c2c1C[C@H]1C[C@H]3[C@H](N(C)C)C(O)=C(C(N)=O)C(=O)[C@@]3(O)C(O)=C1C2=O,< 4,< 4
CCCCOC(=O)Nc1cc(N(C)C)c2c(c1O)C(=O)C1=C(O)[C@]3(O)C(=O)C(C(N)=O)=C(O)[C@@H](N(C)C)[C@@H]3C[C@@H]1C2,< 4,< 4
CN(C)c1cc(C#CC2=CCCC2)c(O)c2c1C[C@H]1C[C@H]3[C@H](N(C)C)C(O)=C(C(N)=O)C(=O)[C@@]3(O)C(O)=C1C2=O,< 4,< 4
CCCCC#Cc1cc(N(C)C)c2c(c1O)C(=O)C1=C(O)[C@]3(O)C(=O)C(C(N)=O)=C(O)[C@@H](N(C)C)[C@@H]3C[C@@H]1C2,< 4,< 4
CCc1cc(C(C)(C)C)c(O)c2c1C[C@H]1C[C@H]3[C@H](N(C)C)C(O)=C(C(=O)NC(C)(C)C)C(=O)[C@@]3(O)C(O)=C1C2=O,> 4,< 4
CN(C)[C@@H]1C(O)=C(C(N)=O)C(=O)[C@@]2(O)C(O)=C3C(=O)c4c(O)ccc(-c5ccccc5)c4C[C@H]3C[C@@H]12,< 4,< 4
CN(C)[C@@H]1C(O)=C(C(N)=O)C(=O)[C@@]2(O)C(O)=C3C(=O)c4c(O)c(-c5ccc6c(c5)OCO6)cc(-c5ccc6c(c5)OCO6)c4C[C@H]3C[C@@H]12,> 4,< 4
CN(C)c1cc(NCc2ccccc2C[C@H]2O[C@@H](CO)[C@@H](O)[C@@H](O)[C@H]2O)c(O)c2c1C[C@H]1C[C@H]3[C@H](N(C)C)C(O)=C(C(N)=O)C(=O)[C@@]3(O)C(O)=C1C2=O,> 4,> 4
CCCCCC(=O)c1ccc(O)c2c1C[C@H]1C[C@H]3[C@H](N(C)C)C(O)=C(C(N)=O)C(=O)[C@@]3(O)C(O)=C1C2=O,< 4,< 4
CN(C)c1cc(NCc2ccc(OC(F)(F)F)cc2)c(O)c2c1C[C@H]1C[C@H]3[C@H](N(C)C)C(O)=C(C(N)=O)C(=O)[C@@]3(O)C(O)=C1C2=O,> 4,< 4
CN(C)c1cc(NCC2CCCCC2)c(O)c2c1C[C@H]1C[C@H]3[C@H](N(C)C)C(O)=C(C(N)=O)C(=O)[C@@]3(O)C(O)=C1C2=O,> 4,> 4

Structure (SMILES),MIC (E. coli mL308 225) [µg/mL],MIC (S. aureus RN450) [µg/mL]
COCCOC(=O)NCc1cc(N(C)C)c2c(c1O)C(=O)C1=C(O)[C@]3(O)C(=O)C(C(N)=O)=C(O)[C@@H](N(C)C)[C@@H]3C[C@@H]1C2,> 4,< 4
CN(C)c1cc(CNC(=O)Nc2ccc3c(c2)OCO3)c(O)c2c1C[C@H]1C[C@H]3[C@H](N(C)C)C(O)=C(C(N)=O)C(=O)[C@@]3(O)C(O)=C1C2=O,> 4,< 4
CN(C)[C@@H]1C(O)=C(C(N)=O)C(=O)[C@@]2(O)C(O)=C3C(=O)c4c(O)ccc(C#CCCC#Cc5ccc(O)c6c5C[C@@]5(C)C[C@@]7(C)[C@H](N(C)C)C(O)C(C(N)=O)C(=O)[C@@]7(O)C(O)=C5C6=O)c4C[C@@]3(C)C[C@@]12C (stereo partly shown),> 4,> 4
COc1ccc(CNCCc2ccccc2)cc1-c1ccc(O)c2c1C[C@H]1C[C@H]3[C@H](N(C)C)C(O)=C(C(N)=O)C(=O)[C@@]3(O)C(O)=C1C2=O,< 4,< 4
CC#Cc1cc(C#CC)c2c(c1O)C(=O)C1=C(O)[C@]3(O)C(=O)C(C(N)=O)=C(O)[C@@H](N(C)C)[C@@H]3C[C@@H]1C2,> 4,> 4
CCOC(=O)CNCc1ccc(OC)c(-c2ccc(O)c3c2C[C@H]2C[C@H]4[C@H](N(C)C)C(O)=C(C(N)=O)C(=O)[C@@]4(O)C(O)=C2C3=O)c1,< 4,< 4
CN(C)[C@@H]1C(O)=C(C(N)=O)C(=O)[C@@]2(O)C(O)=C3C(=O)c4c(O)ccc(-c5ccc(C(=O)Cl)c6ccccc56)c4C[C@H]3C[C@@H]12,> 4,< 4
Cc1cc(C(C)(C)C)c(O)c2c1C[C@H]1C[C@H]3[C@H](N(C)C)C(O)=C(C(N)=O)C(=O)[C@@]3(O)C(O)=C1C2=O,> 4,< 4
CC(C)COC(=O)NCc1ccc(-c2ccc(O)c3c2C[C@H]2C[C@H]4[C@H](N(C)C)C(O)=C(C(N)=O)C(=O)[C@@]4(O)C(O)=C2C3=O)cc1,> 4,< 4
CN(C)[C@@H]1C(O)=C(C(N)=O)C(=O)[C@@]2(O)C(O)=C3C(=O)c4c(O)c(C(C)(C)C)cc(-c5ccc6c(c5)OCO6)c4C[C@H]3C[C@@H]12,> 4,> 4
COc1ccc(CN(C)C)cc1-c1cc(C(C)(C)C)c(O)c2c1C[C@H]1C[C@H]3[C@H](N(C)C)C(O)=C(C(N)=O)C(=O)[C@@]3(O)C(O)=C1C2=O,> 4,< 4
CC(C)OC(=O)c1cccc(-c2ccc(O)c3c2C[C@H]2C[C@H]4[C@H](N(C)C)C(O)=C(C(N)=O)C(=O)[C@@]4(O)C(O)=C2C3=O)c1,< 4,< 4
CN(C)c1ccc(-c2cc(C(C)(C)C)c(O)c3c2C[C@H]2C[C@H]4[C@H](N(C)C)C(O)=C(C(N)=O)C(=O)[C@@]4(O)C(O)=C2C3=O)cc1,> 4,> 4
CN(C)CC(=O)NCc1ccc(-c2ccc(O)c3c2C[C@H]2C[C@H]4[C@H](N(C)C)C(O)=C(C(N)=O)C(=O)[C@@]4(O)C(O)=C2C3=O)cc1,> 4,< 4
CC(C)CNC(=O)Nc1ccc(-c2ccc(O)c3c2C[C@H]2C[C@H]4[C@H](N(C)C)C(O)=C(C(N)=O)C(=O)[C@@]4(O)C(O)=C2C3=O)cc1,< 4,< 4
CN(C)[C@@H]1C(O)=C(C(N)=O)C(=O)[C@@]2(O)C(O)=C3C(=O)c4c(O)ccc(-c5ccc(CNCCc6ccc(Cl)cc6)cc5)c4C[C@H]3C[C@@H]12,< 4,< 4
CN(C)[C@@H]1C(O)=C(C(N)=O)C(=O)[C@@]2(O)C(O)=C3C(=O)c4c(O)ccc(-c5ccc(CNCc6cccc(Cl)c6)cc5)c4C[C@H]3C[C@@H]12,< 4,< 4
CC(C)c1cccc(-c2ccc(O)c3c2C[C@H]2C[C@H]4[C@H](N(C)C)C(O)=C(C(N)=O)C(=O)[C@@]4(O)C(O)=C2C3=O)c1,< 4,< 4
Cc1cc(-c2ccc(O)c3c2C[C@H]2C[C@H]4[C@H](N(C)C)C(O)=C(C(N)=O)C(=O)[C@@]4(O)C(O)=C2C3=O)ccc1F,< 4,< 4
CN(C)[C@@H]1C(O)=C(C(N)=O)C(=O)[C@@]2(O)C(O)=C3C(=O)c4c(O)ccc(-c5ccc(CN6CCOCC6)c6ccccc56)c4C[C@H]3C[C@@H]12,< 4,< 4
C[C@H]1c2c(CN)ccc(O)c2C(=O)C2=C(O)[C@]3(O)C(=O)C(C(N)=O)=C(O)[C@@H](N(C)C)[C@@H]3[C@@H](O)[C@@H]21,> 4,> 4
C[C@H]1c2c(Br)ccc(O)c2C(=O)C2=C(O)[C@]3(O)C(=O)C(C(N)=O)=C(O)[C@@H](N(C)C)[C@@H]3[C@@H](O)[C@@H]21,> 4,> 4
C[C@H]1c2ccc(N)c(O)c2C(=O)C2=C(O)[C@]3(O)C(=O)C(C(N)=O)=C(O)[C@@H](N(C)C)[C@@H]3[C@@H](O)[C@@H]21,> 4,> 4
